Experimental data published in ChEMBL document CHEMBL1201862, “PubChem BioAssay data set” (2004).
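Method: 48-hour compound exposure of cells in 96-well plates, five concentrations, linear interpolation of endpoints. Here, GI50 denotes the concentration required for 50% inhibition of growth.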 Active and inactive are the calls of the source. No stated cut-off is given here; in the data, active = GI50 up to about 1.1 µM and inactive = higher.

Key:
Assay in all cases: growth of human tumour cells (NCI), 48 h
RXF 631 = tested on: RXF 631
DLD-1 = tested on: DLD-1
DMS-114 = tested on: DMS-114
HOP-18 = tested on: HOP-18
SNB-78 = tested on: SNB-78
LXFL 529 = tested on: LXFL 529
XF498 = tested on: XF498
M19-MEL = tested on: M19-MEL
KM-20L2 = tested on: KM-20L2

Structure (SMILES)	GI50 (RXF 631)	GI50 (DLD-1)	GI50 (DMS-114)	GI50 (HOP-18)	GI50 (SNB-78)	GI50 (LXFL 529)	GI50 (XF498)	GI50 (M19-MEL)	GI50 (KM-20L2)
Cc1ccc(NC(=O)COC(=O)c2cccc3c(=O)c4ccccc4[nH]c23)cc1	24.4 µM (inactive)	14.6 µM (inactive)	34.2 µM (inactive)	> 100 µM (inactive)	27.6 µM (inactive)	32.1 µM (inactive)	41 µM (inactive)	46.7 µM (inactive)	53.2 µM (inactive)
CNS(=O)(=O)NNS(=O)(=O)c1ccccc1	–	> 100 µM (inactive)	> 100 µM (inactive)	> 100 µM (inactive)	–	> 100 µM (inactive)	> 100 µM (inactive)	> 100 µM (inactive)	> 100 µM (inactive)
CO[C@H]1[C@H](O)[C@H](O[C@H]2CC[C@@]3(C)[C@H](CC[C@@H]4[C@@H]3CC[C@]3(C)[C@@H](C5=CC(=O)OC5)CC[C@]43O)C2)O[C@@H](C)[C@@H]1O [NERIIFOLIN]	–	0.00184 µM (active)	0.000138 µM (active)	0.000476 µM (active)	0.000552 µM (active)	0.00135 µM (active)	–	0.00363 µM (active)	0.00311 µM (active)
CC(=O)N1c2ccccc2N(C(C)=O)C1c1ccc(C2N(C(C)=O)c3ccccc3N2C(C)=O)[nH]1	> 100 µM (inactive)	–	> 100 µM (inactive)	–	–	> 100 µM (inactive)	> 100 µM (inactive)	> 100 µM (inactive)	> 100 µM (inactive)
C1C[N+]23CCC[N+]2(C1)CCC3 (stereo not given)	> 100 µM (inactive)	> 100 µM (inactive)	> 100 µM (inactive)	> 100 µM (inactive)	> 100 µM (inactive)	> 100 µM (inactive)	–	> 100 µM (inactive)	> 100 µM (inactive)
CC1CN(c2ccc(Cl)cc2)CC(C)OC(=O)O1 (stereo not given)	–	> 100 µM (inactive)	> 100 µM (inactive)	–	> 100 µM (inactive)	> 100 µM (inactive)	> 100 µM (inactive)	> 100 µM (inactive)	> 100 µM (inactive)
Cc1ccc(C)c(N2C(=O)C(=O)C(c3nc4ccccc4s3)/C(=N\c3cccc4c(=O)[nH][nH]c(=O)c34)C2=O)c1 (stereo not given)	> 100 µM (inactive)	> 100 µM (inactive)	> 100 µM (inactive)	> 100 µM (inactive)	–	> 100 µM (inactive)	–	–	> 100 µM (inactive)
CC(=O)n1c2ccccc2c2nc3nc(Oc4ccc(C)cc4)c4ccccc4c3cc21	–	> 100 µM (inactive)	> 100 µM (inactive)	–	42.5 µM (inactive)	97.9 µM (inactive)	–	> 100 µM (inactive)	> 100 µM (inactive)
O=C(/C=C/c1ccccc1)/C=C/c1ccccc1	32.8 µM (inactive)	15.1 µM (inactive)	21.6 µM (inactive)	28.6 µM (inactive)	92.9 µM (inactive)	21.2 µM (inactive)	–	20.6 µM (inactive)	22.1 µM (inactive)
C[Si](C)(C)OC1CC(=O)OC1n1cc(F)c(=O)[nH]c1=O (stereo not given)	14.6 µM (inactive)	7.62 µM (inactive)	27.2 µM (inactive)	23.2 µM (inactive)	–	52.4 µM (inactive)	90.2 µM (inactive)	12.1 µM (inactive)	16.2 µM (inactive)
COc1ccc(C2=CN3CCC[C@H]3C=C2c2cc(O)c(OC)c(OC)c2)cc1OC	–	0.00316 µM (active)	0.00385 µM (active)	0.00427 µM (active)	0.00385 µM (active)	0.00389 µM (active)	–	0.00274 µM (active)	0.00887 µM (active)
COC(=O)/C(=N\NC(C)(C)C)C(C(=O)OC)C(=O)C(=O)Nc1cc(Cl)ccc1Cl (stereo not given)	> 100 µM (inactive)	> 100 µM (inactive)	> 100 µM (inactive)	> 100 µM (inactive)	> 100 µM (inactive)	> 100 µM (inactive)	> 100 µM (inactive)	> 100 µM (inactive)	> 100 µM (inactive)
O=C1C(=O)C(Br)(Br)C(Br)=C1Br	37.9 µM (inactive)	18.8 µM (inactive)	18.8 µM (inactive)	15.6 µM (inactive)	–	15.2 µM (inactive)	–	19.1 µM (inactive)	15 µM (inactive)
